{"source": "patent US12227771B2", "about": "“Expression systems and methods of use thereof” (Janssen Pharmaceutica NV, priority 2019, dated 2025)", "key": {"[1]": {"molecular_target": "T1, α9α10 nAChR (Homo sapiens, UniProt Q9GZZ6+Q9UGM1)", "T1 construct": "expressed in transfected cells; host or cells: HEK293T", "test": "cell-based", "format": "cell-based", "settings": "for rank order of potency of antagonists: dose response curves", "description": "After three washes, the plates were placed in the FLIPR stage. […] Maximal FLIPR responses to ACh were plotted (FIGS. 3A-C)."}, "[2]": {"molecular_target": "T1, α9α10 nAChR", "test": "FLIPR calcium assay of HEK293T cells co-transfected with α9α10 nAChR and cDNA clones, response evoked by 200 μM ACh", "format": "cell-based", "settings": "200 μM ACh; for FLIPR Response (Fold/Baseline): 180 s", "procedure": "Human embryonic kidney 293T (HEK293T) cells were cultured in high glucose DMEM medium supplemented with 10% FBS, sodium pyruvate and penicillin/streptomycin. Prior to transfection, cells were seeded at ˜80-90% confluence in 384-well fluorescence imaging plate reader (FLIPR) assay plates. After a 4 hour (hr) incubation, wells of cells were individually co-transfected with human α9α10 nAChR plus one of 20,000 clones from cDNA libraries encoding most all human proteins (Origene Technologies; Rockville, Md.; Broad Institute; Cambridge, Mass.) using Fugene HD (Promega; Madison, Wis.) according to the manufacture's protocol. After two days incubation, cells were washed three times with assay buffer (137 mM NaCl, 4 mM KCl, 2 mM CaCl2, 1 mM MgCl2, 5 mM glucose, 10 mM HEPES pH7.4) and loaded with Calcium5 dye (Molecular Devices; San Jose, Calif.) and 1.25 mM probenecid for 1 hr at room temperature (RT). After three washes, the plates were placed in the FLIPR stage.\nTo further characterize the regulation of α9α10 nAChR expression, HEK293T cells were co-transfected with α9α10 nAChR and each of CHAT, TMIE, TMEM100, TMEM132A, TMEM132C, TMEM132D, TMEM132E and TNFRSF10A individually and in combination (Table 2)."}}, "note": "Values joined by “and” are separate entries in the source; they are usually repeats but may differ in a detail not shown here. Equal entries are not always repeated. Where two headings read alike, the source gives them in different places.", "data": [{"molecule": "CN1[C@@H]2CC[C@H]1C[C@@H](OC(=O)C(CO)c1ccccc1)C2", "note": "(stereo partly drawn) [Atropine, atropine]", "values": [{"measurement": "IC50", "setting": "[1]; HEK293T, α9α10 nAChR + CHAT + TMIE, 200 μM ACh, read-out: Antagonist IC50", "result": 340, "unit": "µM"}, {"measurement": "IC50", "setting": "[1]; HEK293T, α9α10 nAChR + CHAT, 200 μM ACh, read-out: Antagonist IC50", "result": 12.3, "unit": "µM"}, {"measurement": "IC50", "setting": "[1]; HEK293T, α9α10 nAChR + TMIE, 200 μM ACh, read-out: Antagonist IC50", "result": 15.7, "unit": "µM"}, {"measurement": "rank order of potency of antagonists", "setting": "[1]; 200 μM ACh", "result": "MLA>strychnine>atropine>nicotine"}]}, {"molecule": "O=C1C[C@@H]2OCC=C3CN4CC[C@]56c7ccccc7N1[C@H]5[C@H]2[C@H]3C[C@H]46", "note": "[Strychnine, strychnine]", "values": [{"measurement": "IC50", "setting": "[1]; Antagonist IC50, HEK293T, α9α10 nAChR + CHAT + TMIE, 200 μM ACh", "result": 1.8, "unit": "µM"}, {"measurement": "IC50", "setting": "[1]; Antagonist IC50, HEK293T, α9α10 nAChR + CHAT, 200 μM ACh", "result": 1.3, "unit": "µM"}, {"measurement": "IC50", "setting": "[1]; Antagonist IC50, HEK293T, α9α10 nAChR + TMIE, 200 μM ACh", "result": 0.76, "unit": "µM"}]}, {"molecule": "CN1CCCC1c1cccnc1", "note": "(stereo not drawn) [Nicotine, nicotine]", "values": [{"measurement": "IC50", "setting": "[1]; Antagonist IC50", "result": "384 µM and 544 µM and 1500 µM"}, {"measurement": "rank order of potency of antagonists", "setting": "[1]; 200 μM ACh", "result": "MLA>strychnine>atropine>nicotine"}]}, {"molecule": "TNFRSF10A: Tumor necrosis factor receptor superfamily member 10A, SEQ ID NO: 10, co-transfected cDNA clone", "values": [{"measurement": "FLIPR Response (Fold/Baseline)", "setting": "[2]; HEK293T co-transfected with α9α10 nAChR + CHAT plus the named gene", "result": 2.0, "unit": "Fold/Baseline"}, {"measurement": "FLIPR Response (Fold/Baseline)", "setting": "[2]; HEK293T co-transfected with α9α10 nAChR plus the named gene", "result": 0.4, "unit": "Fold/Baseline"}, {"measurement": "functional expression of co-transfected α9α10 nAChR in cDNA library screen", "setting": "[2]; HEK293T, 20,000 cDNA clones", "result": "enabled functional expression"}]}]}
